# Measurements as given in patent US20150276751A1, “REAGENT FOR IMAGING INTRACELLULAR ACETYLATION” (JAPAN SCIENCE AND TECHNOLOGY AGENCY, priority 2012, published 2015).
# What was measured:
# [1] = Absorption and fluorescence properties of the rhodamine derivative before and after acetylation; format: physicochemical; conditions: for fluorescence maximum: excitation at 550 nm; for absorption maximum / molar absorption coefficient ε at absorption maximum: in PBS (medium given for compound 3); for fluorescence quantum yield: in PBS, rhodamine B as control
# Source text: The compound 3 (RH—NH2) obtained had the absorption maximum (ε=71400 M^−1cm^−1) at 546 nm in PBS, fluorescence maximum at 570 nm with excitation at 550 nm, and fluorescence quantum yield of 4.9×10^−4 as measured in PBS using rhodamine B as a control. The acetylated compound 4 (RH—NHAc) had the absorption maximum (ε=35500 M^−1cm^−1) at 553 nm, fluorescence maximum at 572 nm with excitation at 550 nm, and fluorescence quantum yield of 0.12.
# [2] = Acetylation of compound 3 by compound 6 (acetyl-CoA analogue) with tributylphosphine in PBS; conditions: compound 3 1 μM, tributylphosphine 10 mM, PBS pH 7.4, 1% DMSO, 25° C., ex 550 nm, em 575 nm
# Experimental: The compound 3 (1 μM) was mixed with tributylphosphine (10 mM) as the acylation catalyst or acylation reaction-promoting agent, the compound 6 was added 1 minute afterward, and advance of the acetylation was measured over time at 25° C. in PBS (pH 7.4, 1% DMSO) in the same manner as that of Example 2. Fluorescence of 575 nm was measured with excitation at 550 nm. […] Correlation was observed between the fluorescence intensity and the concentration of the acetylating agent 1 minute after the addition of the acetylating agent (FIG. 2).
# HeLa cells [3] = experiment: Staining and mitochondrial localization in HeLa cells (double staining with TagCFP-Mito); format: cell-based
# Experimental: In order to visualize an intracellular acetylation, the following experiment was conducted by using the compound 3 as the rhodamine derivative. It is known that a positively charged rhodamine derivative structure such as tetramethylrhodamine migrates into cells and localizes in mitochondria (J. Circ. Res., 95, pp. 239-252, 2004; J. Biol. Chem., 264, pp. 8171-8178, 1989; Plos. One., 6, e23684, 2011; as especially for localization of 5-aminorhodamine derivatives in mitochondria, see, GB2283744 and U.S. Pat. No. 5,686,261). The compound 3 (10 μM) was allowed to act on the HeLa cells at 37° C. for 30 minutes in the Hanks' balanced salt solution (HBSS, 137 mM NaCl, 5.4 mM KCl, 1.3 mM CaCl2, 0.5 mM MgCl2, 0.4 mM MgSO4, 0.3 mM Na2HPO4, 0.4 mM KH2PO4, 4.2 mM NaHCO3, 5.6 mM D-glucose, 5 mM HEPES, adjusted to pH 7.4 with NaOH), the cells were washed twice with HBSS, and then fluorescence was measured.
# The localization in the mitochondria of the HeLa cells was visualized by expression of TagCFP-Mito, which is a cyan fluorescent protein, and thereby confirmed. The HeLa cells were transfected with the pTagCFP-Mito vector (Evrogen) using Lipofectamine LTX (Invitrogen), and fluorescence was measured from 24 hours thereafter. The compound 3 was excited at 559 nm, and fluorescence of 580 to 680 nm was measured. TagCFP-Mito was excited at 440 nm, and fluorescence of 460 to 500 nm was measured. […]
# HeLa cells [4] = experiment: Visualization of intracellular acetylation in HeLa cells by fluorescence enhancement; format: cell-based
# Experimental: The acylation catalyst was added at the time point of 2 minutes, and N-methoxydiacetamide (NMD, 10 mM) was added as an acetylating agent at the time point of 7 minutes. Enhancement of the fluorescence intensity (F/F0) was calculated with an excitation wavelength of 550 nm and a fluorescence wavelength of 575 nm as an average of the results obtained from five cells. […] FIGS. 4, (c), (d), and (e) show color images of the HeLa cell after 1 minute, 5 minutes, and 10 minutes, respectively.
# In view of the results of the model acetylation shown in Example 3, it is considered that enhancement of the intracellular fluorescence intensity was originated in acetylation advanced by physiological acetyl-CoA in the inside of mitochondria. […] Therefore, advance of the intracellular acetylation was successfully visualized by the compound 3 together with the physiological acetyl-CoA and the additionally added acetylating agent. It is known that the acetyl-CoA concentration in mitochondria is higher than the average intracellular acetyl-CoA concentration (J. Gen., Microbiol., 134, pp. 2249-2253, 1988), and the aforementioned results are consistent with this finding.
# [5] = Acetylation of compound 3 by N-methoxydiacetamide in PBS with acylation catalyst, fluorescence change over time; conditions: for increase in fluorescence intensity over time vs. no catalyst: PBS pH 7.4, 1% DMSO, 25° C.
# Experimental: The compound 3 (1 μM) and an acylation catalyst or acylation reaction-promoting agent (10 mM) were dissolved in PBS (pH 7.4, containing 1% DMSO), N-methoxydiacetamide (NMD, 0.1M) was added as an acetylating agent 1 minute afterward, and change of fluorescence was measured over time at 25° C.
# [6] = compound 3 1 μM, catalyst 10 mM, NMD 0.1M
Structure (SMILES),fluorescence maximum [1],absorption maximum [1],molar absorption coefficient ε at absorption maximum [1],fluorescence quantum yield [1],"increase in fluorescence intensity over time vs. no catalyst [5, 6]",other results
"CN(C)c1ccc2c(-c3ccc(N)cc3)c3ccc(=[N+](C)C)cc-3oc2c1.O=C([O-])C(F)(F)F [compound 3, N-(9-(4-Aminophenyl)-6-(dimethylamino)-3H-xanthen-3-ylidene)-N-methylmethanaminium trifluoroacetate]",570 nm,546 nm,71400 M⁻¹ cm⁻¹,4.9×10^−4,,"increase of fluorescence on acetylation with compound 6 [2]: Rapid increase of fluorescence was obtained; intracellular localization (staining image) (HeLa cells [3]; 10 μM, 37° C., 30 minutes, HBSS): localization of the compound in the mitochondria; consistency of fluorescence image with TagCFP-Mito image (HeLa cells [3]; ex 559 nm, em 580 to 680 nm, HeLa cells transfected with pTagCFP-Mito): well consistent with the fluorescence image of the cyan fluorescence protein expressed in the mitochondria; enhancement of fluorescence intensity over time, no catalyst (HeLa cells [4]; 37° C., absence of acylation catalyst or reaction-promoting agent): enhancement of fluorescence intensity was not observed; fluorescence intensity after further adding N-methoxydiacetamide (HeLa cells [4]; NMD 10 mM added at 7 minutes, after tributylphosphine 5 mM): the fluorescence intensity was further enhanced; enhancement of intracellular fluorescence intensity with tributylphosphine (HeLa cells [4]; compound 3 10 μM, tributylphosphine 5 mM added to medium, 37° C.): enhancement of intracellular fluorescence intensity was observed"
"CC(=O)Nc1ccc(-c2c3ccc(=[N+](C)C)cc-3oc3cc(N(C)C)ccc23)cc1.CC(=O)[O-] [compound 4, N-(9-(4-Acetamidophenyl)-6-(dimethylamino)-3H-xanthen-3-ylidene)-N-methylmethanaminium acetate]",572 nm,553 nm,35500 M⁻¹ cm⁻¹,0.12,,
CN(C)c1ccncc1 [dimethylaminopyridine],,,,,larger increase in fluorescence intensity was observed over time,
CCCCP(CCCC)CCCC [tributylphosphine],,,,,larger increase in fluorescence intensity was observed over time,"fluorescence intensity relative to that without addition of catalyst ([5]; 5 minutes after addition, compound 3 1 μM, catalyst 10 mM, NMD 0.1M, PBS pH 7.4, 25° C.): about 5 times; increase in reaction rate relative to reaction without catalyst ([5]; compared with rate at start of reaction without catalyst): about 5.5 times"
